Earlier results as cited in patent US20200101019A1, “USE OF LIPOSOMES FOR TREATMENT OF CHRONIC VIRAL HEPATITIS B” (JIANGSU MENDEL GENE TECHNOLOGY CO., LTD, priority 2017, published 2020).

System: Hepatitis B virus (HBV)
Settings: AASLD Guidelines for Treatment of Chronic Hepatitis B, Hepatology 2016

| SMILES | HBeAg/anti-HBe seroconversion rate after treatment with other drugs [%] |
| --- | --- |
| Nc1ncnc2c1ncn2CCOCP(=O)(O)O [Adefovir] | 12 |
| C=C1[C@H](CO)[C@@H](O)C[C@@H]1n1cnc2c(=O)[nH]c(N)nc21 [Entecavir] | 21 |
